Reference: PubChem BioAssay AID248 (DTP/NCI, 2004)
Toxic doses and inconclusive results are not listed. No stated cut-off is given here; in the data, active means T/C of 150% or more; inactive means T/C below 125%.

Tested on: L1210 leukemia ip in BDF1 mice, survival T/C
Experiment: NCI In Vivo Anticancer Drug Screen. Data for tumor model L1210 Leukemia (intraperitoneal) in B6D2F1 (BDF1) mice
Conditions: endpoint: mean survival time, higher = longer survival
How it was run: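 Tumor was transplanted into mice, which were then dosed with test compound or vehicle alone. Survival was recorded for each group, and the treated figure was expressed relative to the control figure.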

[1] = dose: 100.0 mg/kg/injection, schedule: Q01DX001 (ip), vehicle: Klucel (hydroxypropylcellulose) (HPC)
[2] = dose: 200.0 mg/kg/injection, schedule: Q01DX001 (ip), vehicle: Klucel (hydroxypropylcellulose) (HPC)
[3] = dose: 400.0 mg/kg/injection, schedule: Q01DX001 (ip), vehicle: Klucel (hydroxypropylcellulose) (HPC)
[4] = dose: 100.0 mg/kg/injection, schedule: Q01DX009 (ip), vehicle: saline
[5] = dose: 100.0 mg/kg/injection, schedule: Q04DX003 (ip), vehicle: saline
[6] = dose: 200.0 mg/kg/injection, schedule: Q01DX009 (ip), vehicle: saline
[7] = dose: 200.0 mg/kg/injection, schedule: Q04DX003 (ip), vehicle: saline
[8] = dose: 400.0 mg/kg/injection, schedule: Q01DX009 (ip), vehicle: saline
[9] = dose: 400.0 mg/kg/injection, schedule: Q04DX003 (ip), vehicle: saline
[10] = dose: 100.0 mg/kg/injection, schedule: Q01DX001 (ip), vehicle: other
[11] = dose: 100.0 mg/kg/injection, schedule: Q01DX001 (ip), vehicle: saline
[12] = dose: 200.0 mg/kg/injection, schedule: Q01DX001 (ip), vehicle: saline
[13] = dose: 400.0 mg/kg/injection, schedule: Q01DX001 (ip), vehicle: saline
[14] = dose: 25.0 mg/kg/injection, schedule: Q01DX009 (ip), vehicle: Klucel (hydroxypropylcellulose) (HPC)
[15] = dose: 25.0 mg/kg/injection, schedule: Q04DX002 (ip), vehicle: Klucel (hydroxypropylcellulose) (HPC)
[16] = dose: 100.0 mg/kg/injection, schedule: Q04DX002 (ip), vehicle: saline
[17] = dose: 200.0 mg/kg/injection, schedule: Q04DX002 (ip), vehicle: saline
[18] = dose: 400.0 mg/kg/injection, schedule: Q04DX002 (ip), vehicle: saline

Measured: T/C

Nc1nc(Cl)c(CCCCc2ccccc2)c(C(=O)O)n1
inactive: [1] 93 % of control | [2] 91 % of control | [3] 101 % of control

c1ccc(COB(OCc2ccccc2)OCc2ccccc2)cc1
inactive: [4] 110 % of control | [5] 105 % of control | [6] 104 % of control | [7] 102 % of control | [8] 96 % of control | [9] 96 % of control

Cc1cn(-c2ccccc2)c(=O)[nH]c1=O
inactive: [10] 112 % of control

C[N+]1=COCC1(C)C
inactive: [4] 104 % of control | [5] 99 % of control | [6] 101 % of control | [7] 94 % of control | [8] 115 % of control | [9] 97 % of control

O=C(O)C[As](=O)(O)O
inactive: dose: 30.0 mg/kg/injection, schedule: Q01DX009 (ip), vehicle: saline 90 % of control | dose: 60.0 mg/kg/injection, schedule: Q01DX009 (ip), vehicle: saline 97 % of control

CCCCC/C=C(\CCCCCC)c1ccccc1
inactive: dose: 100.0 mg/kg/injection, schedule: Q01DX001 (ip), vehicle: saline with Tween-80 98 % of control | dose: 200.0 mg/kg/injection, schedule: Q01DX001 (ip), vehicle: saline with Tween-80 95 % of control | dose: 400.0 mg/kg/injection, schedule: Q01DX001 (ip), vehicle: saline with Tween-80 90 % of control

Cn1nnc(CCCl)n1
inactive: [11] 110 % of control | [12] 91 % of control | [13] 95 % of control

CC(C)=CCC/C(C)=C/C#N
inactive: dose: 100.0 mg/kg/injection, schedule: Q01DX001 (ip), vehicle: carboxymethylcellulose (CMC) 100 % of control | dose: 200.0 mg/kg/injection, schedule: Q01DX001 (ip), vehicle: carboxymethylcellulose (CMC) 111 % of control | dose: 400.0 mg/kg/injection, schedule: Q01DX001 (ip), vehicle: carboxymethylcellulose (CMC) 94 % of control

CN(C)C(=S)SCC(N)=O
inactive: [1] 103 % of control | [2] 100 % of control | [3] 103 % of control

CCCC(CCC)(CCC)CCN
inactive: dose: 5.0 mg/kg/injection, schedule: Q01DX Z (ip), vehicle: carboxymethylcellulose (CMC) 91 % of control | dose: 10.0 mg/kg/injection, schedule: Q01DX Z (ip), vehicle: carboxymethylcellulose (CMC) 112 % of control | dose: 15.0 mg/kg/injection, schedule: Q01DX Z (ip), vehicle: carboxymethylcellulose (CMC) 106 % of control | dose: 20.0 mg/kg/injection, schedule: Q01DX Z (ip), vehicle: carboxymethylcellulose (CMC) 101 % of control

CCCCCCCCCCCCCCCCCCCC[As](=O)(O)CCCCCCCCCCCCCCCCCCCC
inactive: dose: 50.0 mg/kg/injection, schedule: Q01DX001 (ip), vehicle: saline 97 % of control | [11] 101 % of control | [12] 95 % of control | [13] 103 % of control

CCCCC/C=C\C/C=C/CCCCCCCC1=NC(C)(CO)CO1 (centres undefined)
inactive: [11] 92 % of control | [12] 98 % of control | [13] 98 % of control

CC(C)CCCC(C)C1CCC2C3CCC4CC(O)CCC4(C)C3CCC12C (centres undefined)
inactive: dose: 100.0 mg/kg/injection, schedule: Q01DX001 (sc), vehicle: steriod suspending solution 109 % of control | dose: 200.0 mg/kg/injection, schedule: Q01DX001 (sc), vehicle: steriod suspending solution 109 % of control | dose: 400.0 mg/kg/injection, schedule: Q01DX001 (sc), vehicle: steriod suspending solution 100 % of control

NC(CSS(=O)(=O)O)=NCc1ccsc1
inactive: dose: 6.25 mg/kg/injection, schedule: Q01DX009 (ip), vehicle: Klucel (hydroxypropylcellulose) (HPC) 96 % of control | dose: 12.5 mg/kg/injection, schedule: Q01DX009 (ip), vehicle: Klucel (hydroxypropylcellulose) (HPC) 104 % of control | dose: 12.5 mg/kg/injection, schedule: Q04DX002 (ip), vehicle: Klucel (hydroxypropylcellulose) (HPC) 100 % of control | [14] 101 % of control | [15] 95 % of control

CCOC(=O)c1ccc(NC(=O)Sc2ccccc2C)cc1
inactive: [16] 120 % of control | [17] 120 % of control | [18] 87 % of control

Cc1ccc(S(=O)(=O)Oc2ccccc2C)cc1
inactive: dose: 100.0 mg/kg/injection, schedule: Q04DX003 (ip), vehicle: Klucel (hydroxypropylcellulose) (HPC) 97 % of control | dose: 200.0 mg/kg/injection, schedule: Q04DX003 (ip), vehicle: Klucel (hydroxypropylcellulose) (HPC) 103 % of control | dose: 400.0 mg/kg/injection, schedule: Q04DX003 (ip), vehicle: Klucel (hydroxypropylcellulose) (HPC) 103 % of control

C=C1CC(c2ccc(S(=O)(=O)N(CC)CC)cc2)OC1=O (centres undefined)
inactive: dose: 25.0 mg/kg/injection, schedule: Q01DX005 (ip), vehicle: Klucel (hydroxypropylcellulose) (HPC) 89 % of control | [14] 98 % of control | [15] 96 % of control | dose: 50.0 mg/kg/injection, schedule: Q01DX005 (ip), vehicle: Klucel (hydroxypropylcellulose) (HPC) 92 % of control | dose: 50.0 mg/kg/injection, schedule: Q01DX009 (ip), vehicle: Klucel (hydroxypropylcellulose) (HPC) 94 % of control | dose: 50.0 mg/kg/injection, schedule: Q04DX002 (ip), vehicle: Klucel (hydroxypropylcellulose) (HPC) 96 % of control | dose: 100.0 mg/kg/injection, schedule: Q01DX005 (ip), vehicle: Klucel (hydroxypropylcellulose) (HPC) 96 % of control | dose: 100.0 mg/kg/injection, schedule: Q01DX009 (ip), vehicle: Klucel (hydroxypropylcellulose) (HPC) 98 % of control | dose: 100.0 mg/kg/injection, schedule: Q04DX002 (ip), vehicle: Klucel (hydroxypropylcellulose) (HPC) 96 % of control

O=C(C1=C(C(=O)c2ccccc2)C2C=CC1C2)c1ccccc1
inactive: dose: 75.0 mg/kg/injection, schedule: Q04DX003 (ip), vehicle: Klucel (hydroxypropylcellulose) (HPC) 96 % of control | dose: 150.0 mg/kg/injection, schedule: Q04DX003 (ip), vehicle: Klucel (hydroxypropylcellulose) (HPC) 94 % of control | dose: 300.0 mg/kg/injection, schedule: Q04DX003 (ip), vehicle: Klucel (hydroxypropylcellulose) (HPC) 89 % of control

O=C(CC1OCCO1)c1ccccc1
inactive: dose: 50.0 mg/kg/injection, schedule: Q04DX002 (ip), vehicle: saline 95 % of control | [16] 89 % of control | [17] 95 % of control | [18] 95 % of control

CC(=O)Nc1ccc2ccc3ccc4ccccc4c3c2c1
inactive: dose: 3.12 mg/kg/injection, schedule: Q04DX002 (ip), vehicle: saline with Tween-80 111 % of control | dose: 6.25 mg/kg/injection, schedule: Q04DX002 (ip), vehicle: saline with Tween-80 111 % of control | dose: 12.5 mg/kg/injection, schedule: Q04DX002 (ip), vehicle: saline with Tween-80 108 % of control | dose: 25.0 mg/kg/injection, schedule: Q04DX002 (ip), vehicle: saline with Tween-80 103 % of control | dose: 50.0 mg/kg/injection, schedule: Q04DX002 (ip), vehicle: saline with Tween-80 102 % of control

O=C(OC1OCC(OCc2ccccc2)C(OCc2ccccc2)C1OCc1ccccc1)c1ccc([N+](=O)[O-])cc1 (centres undefined)
inactive: [10] 88 % of control | dose: 200.0 mg/kg/injection, schedule: Q01DX001 (ip), vehicle: other 90 % of control | dose: 400.0 mg/kg/injection, schedule: Q01DX001 (ip), vehicle: other 90 % of control
